{"source": "paper PMC7647111", "about": "“Antileishmanial compounds from Connarus suberosus: Metabolomics, isolation and mechanism of action” (PLoS ONE, 2020)", "key": {"[1]": {"test_system": "L. amazonensis promastigotes", "assay": "Antiproliferation assay: L. amazonensis promastigotes (72 h), MTT", "type": "cell-based, Leishmania amazonensis (IFLA/BR/1967/PH8)", "conditions": "Leishmania amazonensis; 72 h exposure", "procedure": "Leishmania amazonensis promastigotes (IFLA/BR/1967/PH8) for the 24 h exposure test were cultivated in RPMI 1640, supplemented with 20% v/v heat inactivated fetal bovine serum (FBS) and incubated at 26°C until near the end of the log growth phase. Leishmania amazonensis (IFLA/BR/1967/PH8) and L. infantum (MCAN/BR/2008/1112) promastigotes used in the 72 h exposure test were cultivated in Warren’s medium (containing brain heart infusion- BHI plus hemin and folic acid), supplemented with 10% FBS, 0.1% of the antibiotics: 100 UI/mL penicillin G and 0.1 mg/mL streptomycin. Leishmania amazonensis (IFLA/BR/1967/PH8) transfected with the red fluorescent protein (RFP) gene was cultured in M199 medium (containing 0.1 mmol/L adenine, 40 mmol/L hepes, 0.0005% hemin and 0.0002% biotin), supplemented with 10% FBS, and 0.1% of the antibiotic. Parasites were maintained at 25°C in a BOD incubator.\nExtracts and isolated compounds were tested against L. amazonensis promastigotes (IFLA/BR/1967/PH8 strain - 2x10^5 cells/well) and L. infantum promastigotes (MCAN/BR/2008/1112 strain - 3x10^5 cells/well). The samples were solubilized in DMSO (<1%), serially diluted (100 μg/mL to 1.56 μg/mL) and tested in a 96-well plate to obtain a dose-response curve. Miltefosine and DMSO were used as positive and negative controls, respectively. After 72 h, 10 μL of 3-(4,5-dimethylthiazol-2-yl)-2,5-diphenyl tetrazolium bromide (5 mg/mL—MTT, Sigma-Aldrich) solution was added to each well and the plate returned to the incubator for an additional 4 h. To halt the reaction, 100 μL acidified isopropanol was added to each well. Plates were read at 570 nm in a microplate reader (Multiskan MS, LabSystems Oy, Helsinki, Finland)."}, "[2]": {"test_system": "L. amazonensis promastigotes", "assay": "Mitochondrial membrane potential (MitoTracker)", "type": "cell-based, Leishmania amazonensis", "conditions": "24 h; 2 at 33.8 μM, 3 at 11.4 μM; FCCP 5.0 μM for 10 min", "procedure": "After 24 h of incubation at 25°C, the parasite concentration was adjusted to 5x10^6 cells/mL and stained with 500 nM MitoTracker (Invitrogen, Eugene, OR, USA) in the dark for 40 min at 37°C. After washing twice with PBS, samples were transferred in triplicate to a black 96-well plate, and fluorescence measured in a spectrofluorometer (FLx800, BioTek Instruments, Inc., Winooski, VT, USA) at 540/600 nm excitation/emission. […] Louis, MO, USA) for 10 min were used to obtain maximal mitochondrial depolarization (positive control)."}, "[3]": {"test_system": "L. amazonensis promastigotes", "assay": "Cell membrane integrity (propidium iodide)", "type": "cell-based, Leishmania amazonensis", "conditions": "24 h; 2 at 33.8 μM, 3 at 11.4 μM", "procedure": "Plates were incubated with propidium iodide (PI) (1.0 μg/mL—Sigma-Aldrich, USA, St. Louis, MO, USA) for 15 min in the dark at RT. Fluorescence was measured using a spectrofluorometer (FLx800, BioTek Instruments, Inc., Winooski, VT, USA) with 540/600 nm excitation/emission. Parasites heated at 65 °C were used as the positive control."}, "[4]": {"test_system": "L. amazonensis promastigotes", "assay": "Neutral lipid quantification (Nile Red)", "type": "cell-based, Leishmania amazonensis", "conditions": "24 h; 2 at 33.8 μM, 3 at 11.4 μM", "procedure": "After 24 h of exposure, the parasites (1x10^7 cells/well) were stained with 10 μg/mL Nile Red (Sigma-Aldrich, St. Louis, MO, USA) in the dark for 20 min at 25°C. Fluorescence intensity was analysed in a spectrofluorometer (BioTek Instruments, Inc., Winooski, VT, USA) using 485/528 nm excitation/emission."}, "[5]": {"test_system": "L. amazonensis promastigotes", "assay": "Transmission electron microscopy (TEM)", "type": "cell-based, Leishmania amazonensis", "conditions": "11.4 μM, 24 h", "procedure": "Leishmania amazonensis promastigotes (10^7 cells/mL) were treated with compound 3 (11.4 μM) or incubated with controls (medium alone or medium plus 0.01% DMSO) for 24 h at 26°C. The parasites were subsequently washed in PBS, fixed in 2.5% glutaraldehyde (in 0.1 M sodium cacodylate buffer) at pH 7.2 for 45 min at room temperature. After fixation, the specimens were washed three times successively with 0.1 M sodium cacodylate buffer, and postfixed in 1% osmium tetroxide, 0.8% potassium ferricyanide, and 5 mM of the CaCl2 in 0.1 M of the sodium cacodylate buffer (0.1 M, pH 7.2). Dehydration was performed in acetone, followed by the embedding resin (Spur, Sigma-Aldrich®). Ultrathin sections were contrasted with uranyl acetate and lead citrate and observed under a transmission electron microscope (JEOL 1011)."}}, "note": "Values joined by “and” are separate entries in the source; they are usually repeats but may differ in a detail not shown here. Identical values can stand only once.", "data": [{"smiles": "C=C[C@@H](c1cc(CC=C(C)C)ccc1O)c1cc(CC=C(C)C)c(OC)cc1O", "note": "[Compound 3, connarin]", "values": [{"measurement": "IC50", "setting": "[1]", "value": "4.5 µg/mL and 11.4 µM"}, {"measurement": "reduction in mitochondrial membrane potential (ΔΨm)", "setting": "[2]", "value": 26.5, "unit": "%"}, {"measurement": "plasma membrane integrity (PI-positive parasites)", "setting": "[3]", "value": "did not interfere with plasma membrane permeation"}, {"measurement": "increase in neutral lipid levels in relation to the untreated control", "setting": "[4]", "value": 82.0, "unit": "%"}, {"measurement": "ultrastructural modification (TEM)", "setting": "[5]", "value": "showed lipid bodies and the presence of vacuoles"}]}]}
